Measured values from patent US20160287568A1, “COMPOSITION OF A NON-NUCLEOSIDE REVERSE TRANSCRIPTASE INHIBITOR” (MERCK SHARP & DOHME CORP., priority 2013, published 2016).
Read-outs that look alike come from different tables or passages of the source.

Key:
[1] = Storage of neat amorphous spray dried drug in open container, crystallization; format: physicochemical; conditions: neat amorphous drug generated by spray drying
Excerpt: It is well understood that crystallization tendency varies dramatically across active pharmaceutical ingredients (Journal of Pharmaceutical Sciences, Vol. 99, No. 9, September 2010) and the rate of crystallization is a function of the thermodynamic driving force and the mobility of the system (Angell, C. A., Formation of Glasses from Liquids and Biopolymers. Science, 1995. 267(5206): p. 1924-1935. Mullin, J. W., Crystallization. 4th ed. 2001, Oxford: Reed Educational and Professional Publishing Ltd. Hoffman, J. D., Thermodynamic Driving Force in Nucleation and Growth Processes. Journal of Chemical Physics, 1958. 29(5): p. 1192-1193. Adam, G. and Gibbs, J. H., On Temperature Dependence of Cooperative Relaxation Properties in Glass-Forming Liquids. Journal of Chemical Physics, 1965. 43(1): p. 139-146. Ediger, M. D., Supercooled liquids and glasses. Journal of Physical Chemistry, 1996. 100(31): p. 13200-13212.). […] Neat amorphous drug generated by spray drying crystallizes within 2 weeks when stored in an open container at 5° C./ambient relative humidity (RH), 30° C./65% RH, 40° C./75% RH, and 60° C./ambient RH.

[2] = Pharmacokinetic profile in fasted beagle dogs; format: in vivo; conditions: dog, blood, po, 1 mg/kg; for Cmax / AUC(0-t): 3 fasted beagle dogs; for AUC(0-t): read-out: AUC0-24
Method: The API is Compound A, or a pharmaceutically acceptable salt thereof. Bioavailability is determined in vivo by dosing trial formulations and/or other formulations of the active pharmaceutical ingredient (API) to Beagle dogs at a dose of 1 mg/kg of the API and then measuring the amount of API in the serum or blood as a function of time. The spray dried particles from Spray Dry Process I were made into granules as follows. The particles were blended in a suitable blender (V or Bohle) with microcrystalline cellulose (diluent/compression aid), lactose (diluent/compression aid), croscarmellose sodium (a disintegrant), colloidal silicon dioxide (a glidant), and magnesium stearate (a lubricant). The blended powders were then roller compacted into granules, subjected to extragranular lubrication, and filled into capsules.

[3] = capsule of spray dried dispersion: 10% Compound A, 40% HPMCAS-LG
[4] = comparison capsule: 30% crystalline Compound A without polymer, 5% sodium lauryl sulfate

time to crystallization ([1]; 5° C./ambient RH): ≤ 2 weeks
time to crystallization ([1]; 30° C./65% RH): ≤ 2 weeks
time to crystallization ([1]; 40° C./75% RH): ≤ 2 weeks
time to crystallization ([1]; 60° C./ambient RH): ≤ 2 weeks
Tmax [2]: 4 h
Cmax [2, 3]: 7.23 ± 0.99 µM
AUC(0-t) [2, 3]: 137 ± 25.3 µM·h
Cmax [2, 4]: 3.46 ± 1.59 µM
AUC(0-t) [2, 4]: 52.4 ± 15.9 µM·h
Compound: Cn1c(Cn2ccc(C(F)(F)F)c(Oc3cc(Cl)cc(C#N)c3)c2=O)n[nH]c1=O [Compound A, 3-chloro-5-({1-[(4-methyl-5-oxo-4,5-dihydro-1H-1,2,4-triazol-3-yl)methyl]-2-oxo-4-(trifluoromethyl)-1,2-dihydropyridin-3-yl}oxy)benzonitrile]
